One block for each molecule: values may come before it. The source made the active and inactive calls.
What was measured:
[1] = target: Lytic switch protein BZLF1 (Epstein-Barr virus (strain B95-8) (HHV-4) (Human herpesvirus 4), UniProt P03206); experiment: EBV ZTA inhibitors, dose response, counter-screen for EBNA-1 inhibitor project, biochemical, fluorescence polarization, Epstein-Barr virus, 1536-well (AID 2377); design: species or system human gammaherpesvirus 4;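 further: fluorescence polarization of Cy5-labelled ZRE DNA probe bound by purified Zta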
[2] = target: Epstein-Barr nuclear antigen 1 (Epstein-Barr virus (strain B95-8) (HHV-4) (Human herpesvirus 4), UniProt P03211); experiment: EBNA-1 inhibitors, dose response, biochemical, fluorescence polarization, 1536-well (AID 2381); design: species or system human gammaherpesvirus 4;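 further: fluorescence polarization of a Cy5 DNA probe bound by EBNA-1 protein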
[3] = target: T1, Neuropeptide Y receptor type 2 (Homo sapiens, UniProt P49146); type: functional, cell-based;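 further: HEK293 cells expressing the receptor and a CNG channel; stimulus was NPY near EC95 followed by isoproterenol to raise cAMP; antagonist potency measured as restoring cAMP signal that NPY suppresses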
T1 sequence (P49146 whole entry): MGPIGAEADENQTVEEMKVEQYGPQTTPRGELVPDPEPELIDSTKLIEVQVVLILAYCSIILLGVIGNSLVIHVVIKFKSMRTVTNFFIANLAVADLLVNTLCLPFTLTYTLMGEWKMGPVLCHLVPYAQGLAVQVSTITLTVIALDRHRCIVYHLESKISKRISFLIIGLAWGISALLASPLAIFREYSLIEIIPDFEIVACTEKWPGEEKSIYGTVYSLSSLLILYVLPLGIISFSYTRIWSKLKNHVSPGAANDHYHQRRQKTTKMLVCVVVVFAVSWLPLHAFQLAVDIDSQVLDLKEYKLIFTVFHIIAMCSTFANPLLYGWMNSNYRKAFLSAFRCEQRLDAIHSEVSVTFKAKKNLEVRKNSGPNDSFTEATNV

[4] = target: T2, Neuropeptide Y receptor type 1 (Homo sapiens, UniProt P25929); type: functional;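 further: HEK293 cells with a CNG channel challenged with NPY then isoproterenol; potency as antagonist that reverses NPY suppression of cAMP signal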
T2 sequence (P25929 whole entry): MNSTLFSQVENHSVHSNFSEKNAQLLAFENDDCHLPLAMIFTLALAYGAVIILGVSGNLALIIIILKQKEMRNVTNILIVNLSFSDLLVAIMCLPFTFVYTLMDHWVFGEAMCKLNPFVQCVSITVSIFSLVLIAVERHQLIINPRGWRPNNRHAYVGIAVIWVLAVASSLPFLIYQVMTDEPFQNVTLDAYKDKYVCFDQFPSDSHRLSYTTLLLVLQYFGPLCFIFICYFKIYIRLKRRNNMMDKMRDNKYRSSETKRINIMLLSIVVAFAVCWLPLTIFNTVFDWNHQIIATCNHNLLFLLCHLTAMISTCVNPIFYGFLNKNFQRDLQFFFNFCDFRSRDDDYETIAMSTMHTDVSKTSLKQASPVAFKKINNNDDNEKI

Estrogen receptor = target: T3, Estrogen receptor (Homo sapiens, UniProt P03372); experiment: potentiators of ERα–SRC-1 coactivator binding, dose response, biochemical, TR-FRET, ERα LBD (AID 737)
T3 sequence (P03372 whole entry): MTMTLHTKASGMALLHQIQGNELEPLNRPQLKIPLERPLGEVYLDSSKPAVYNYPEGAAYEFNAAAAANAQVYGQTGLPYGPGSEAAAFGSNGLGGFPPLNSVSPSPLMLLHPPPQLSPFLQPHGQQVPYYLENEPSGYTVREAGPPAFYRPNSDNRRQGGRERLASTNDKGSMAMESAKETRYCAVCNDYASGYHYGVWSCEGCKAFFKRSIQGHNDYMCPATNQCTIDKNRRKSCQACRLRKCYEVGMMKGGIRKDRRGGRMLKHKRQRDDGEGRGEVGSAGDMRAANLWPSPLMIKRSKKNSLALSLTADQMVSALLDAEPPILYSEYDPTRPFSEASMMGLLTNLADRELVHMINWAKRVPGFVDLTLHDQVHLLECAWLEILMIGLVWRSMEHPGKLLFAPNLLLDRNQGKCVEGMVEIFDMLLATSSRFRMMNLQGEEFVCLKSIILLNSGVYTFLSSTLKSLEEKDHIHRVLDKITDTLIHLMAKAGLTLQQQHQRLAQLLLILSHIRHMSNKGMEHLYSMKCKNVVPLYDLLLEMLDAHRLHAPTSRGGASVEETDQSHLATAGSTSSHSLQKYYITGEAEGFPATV

Bcl-2-like protein 10 = target: T4, Bcl-2-like protein 10 (Homo sapiens, UniProt Q9HD36); experiment: Biochemical TR3 FP assay of Bcl-B inhibitor potency, EC50 (AID 1243); type: functional
T4 sequence (Q9HD36 whole entry): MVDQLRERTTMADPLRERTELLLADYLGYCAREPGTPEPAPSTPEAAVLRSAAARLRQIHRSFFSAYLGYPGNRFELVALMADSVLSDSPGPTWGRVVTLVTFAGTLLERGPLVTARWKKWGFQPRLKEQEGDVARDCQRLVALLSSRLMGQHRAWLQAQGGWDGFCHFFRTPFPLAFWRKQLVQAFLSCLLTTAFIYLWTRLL

[5] = target: Peroxisome proliferator-activated receptor gamma/Nuclear receptor coactivator 3 (Homo sapiens, UniProt P37231); type: functional;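 further: agonist potency for raising coactivator recruitment to the receptor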
[6] = target: Peroxisome proliferator-activated receptor gamma/Nuclear receptor coactivator 2 (Homo sapiens, UniProt P37231); type: functional;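 further: agonist potency for raising coactivator recruitment to the receptor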
[7] = target: Peroxisome proliferator-activated receptor gamma/Nuclear receptor coactivator 1 (Homo sapiens, UniProt P37231); type: functional;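 further: agonist potency as compounds enhance coactivator SRC-1 recruitment to PPARgamma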

Chain of Peroxisome proliferator-activated receptor gamma/Nuclear receptor coactivator 3 (P37231 whole entry): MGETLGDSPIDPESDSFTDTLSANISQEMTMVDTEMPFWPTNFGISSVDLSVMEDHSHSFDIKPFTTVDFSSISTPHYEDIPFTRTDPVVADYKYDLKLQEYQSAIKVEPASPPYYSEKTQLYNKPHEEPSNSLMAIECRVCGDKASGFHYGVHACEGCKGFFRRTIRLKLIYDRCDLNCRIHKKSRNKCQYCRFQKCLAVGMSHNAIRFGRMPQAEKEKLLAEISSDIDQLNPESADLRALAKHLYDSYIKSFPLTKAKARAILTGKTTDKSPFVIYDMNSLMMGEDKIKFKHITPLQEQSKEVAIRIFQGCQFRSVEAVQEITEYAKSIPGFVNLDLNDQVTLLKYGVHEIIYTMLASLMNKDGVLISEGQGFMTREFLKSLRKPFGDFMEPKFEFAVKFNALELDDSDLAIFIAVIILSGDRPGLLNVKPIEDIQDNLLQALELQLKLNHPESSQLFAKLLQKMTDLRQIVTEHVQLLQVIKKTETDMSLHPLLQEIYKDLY
Chain of Peroxisome proliferator-activated receptor gamma/Nuclear receptor coactivator 3 (Q9Y6Q9 whole entry, further chain): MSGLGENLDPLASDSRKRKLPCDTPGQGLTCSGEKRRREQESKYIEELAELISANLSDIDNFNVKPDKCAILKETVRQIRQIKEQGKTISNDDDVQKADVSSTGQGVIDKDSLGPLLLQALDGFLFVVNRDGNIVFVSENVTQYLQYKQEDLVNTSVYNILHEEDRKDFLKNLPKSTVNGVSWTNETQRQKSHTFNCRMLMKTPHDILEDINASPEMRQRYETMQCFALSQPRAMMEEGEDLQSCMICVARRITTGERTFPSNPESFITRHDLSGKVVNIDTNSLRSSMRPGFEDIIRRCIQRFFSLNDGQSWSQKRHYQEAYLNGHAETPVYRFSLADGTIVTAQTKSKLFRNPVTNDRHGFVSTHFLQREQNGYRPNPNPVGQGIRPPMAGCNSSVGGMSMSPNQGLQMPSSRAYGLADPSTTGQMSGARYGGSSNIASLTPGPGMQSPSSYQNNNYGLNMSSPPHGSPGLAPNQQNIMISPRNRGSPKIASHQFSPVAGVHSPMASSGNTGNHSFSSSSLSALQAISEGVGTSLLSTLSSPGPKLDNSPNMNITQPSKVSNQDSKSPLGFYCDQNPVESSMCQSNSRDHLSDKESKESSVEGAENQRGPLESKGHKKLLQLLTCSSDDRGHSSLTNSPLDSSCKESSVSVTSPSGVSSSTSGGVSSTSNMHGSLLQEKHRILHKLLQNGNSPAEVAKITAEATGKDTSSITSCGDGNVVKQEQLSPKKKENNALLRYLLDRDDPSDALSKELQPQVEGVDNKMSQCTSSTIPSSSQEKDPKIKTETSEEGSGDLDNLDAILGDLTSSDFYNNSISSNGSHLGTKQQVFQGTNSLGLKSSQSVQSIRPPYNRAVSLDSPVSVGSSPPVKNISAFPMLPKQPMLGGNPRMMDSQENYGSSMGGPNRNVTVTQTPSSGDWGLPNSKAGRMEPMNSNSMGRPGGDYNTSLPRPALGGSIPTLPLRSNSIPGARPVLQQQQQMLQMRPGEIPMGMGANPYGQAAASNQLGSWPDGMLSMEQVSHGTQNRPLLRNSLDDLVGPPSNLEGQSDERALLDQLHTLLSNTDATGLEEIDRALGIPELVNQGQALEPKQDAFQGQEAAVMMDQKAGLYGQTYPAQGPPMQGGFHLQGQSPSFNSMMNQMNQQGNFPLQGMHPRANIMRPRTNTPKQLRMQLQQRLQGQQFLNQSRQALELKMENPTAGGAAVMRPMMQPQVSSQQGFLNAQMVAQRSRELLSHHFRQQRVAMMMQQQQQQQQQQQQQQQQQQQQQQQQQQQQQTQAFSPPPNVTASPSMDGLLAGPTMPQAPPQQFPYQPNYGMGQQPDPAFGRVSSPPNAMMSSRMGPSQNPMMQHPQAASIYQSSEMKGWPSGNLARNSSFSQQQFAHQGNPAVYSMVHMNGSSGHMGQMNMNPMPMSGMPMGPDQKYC
Chain of Peroxisome proliferator-activated receptor gamma/Nuclear receptor coactivator 2 (P37231 whole entry): as the sequence (P37231 whole entry) above
Chain of Peroxisome proliferator-activated receptor gamma/Nuclear receptor coactivator 2 (Q15596 whole entry, further chain): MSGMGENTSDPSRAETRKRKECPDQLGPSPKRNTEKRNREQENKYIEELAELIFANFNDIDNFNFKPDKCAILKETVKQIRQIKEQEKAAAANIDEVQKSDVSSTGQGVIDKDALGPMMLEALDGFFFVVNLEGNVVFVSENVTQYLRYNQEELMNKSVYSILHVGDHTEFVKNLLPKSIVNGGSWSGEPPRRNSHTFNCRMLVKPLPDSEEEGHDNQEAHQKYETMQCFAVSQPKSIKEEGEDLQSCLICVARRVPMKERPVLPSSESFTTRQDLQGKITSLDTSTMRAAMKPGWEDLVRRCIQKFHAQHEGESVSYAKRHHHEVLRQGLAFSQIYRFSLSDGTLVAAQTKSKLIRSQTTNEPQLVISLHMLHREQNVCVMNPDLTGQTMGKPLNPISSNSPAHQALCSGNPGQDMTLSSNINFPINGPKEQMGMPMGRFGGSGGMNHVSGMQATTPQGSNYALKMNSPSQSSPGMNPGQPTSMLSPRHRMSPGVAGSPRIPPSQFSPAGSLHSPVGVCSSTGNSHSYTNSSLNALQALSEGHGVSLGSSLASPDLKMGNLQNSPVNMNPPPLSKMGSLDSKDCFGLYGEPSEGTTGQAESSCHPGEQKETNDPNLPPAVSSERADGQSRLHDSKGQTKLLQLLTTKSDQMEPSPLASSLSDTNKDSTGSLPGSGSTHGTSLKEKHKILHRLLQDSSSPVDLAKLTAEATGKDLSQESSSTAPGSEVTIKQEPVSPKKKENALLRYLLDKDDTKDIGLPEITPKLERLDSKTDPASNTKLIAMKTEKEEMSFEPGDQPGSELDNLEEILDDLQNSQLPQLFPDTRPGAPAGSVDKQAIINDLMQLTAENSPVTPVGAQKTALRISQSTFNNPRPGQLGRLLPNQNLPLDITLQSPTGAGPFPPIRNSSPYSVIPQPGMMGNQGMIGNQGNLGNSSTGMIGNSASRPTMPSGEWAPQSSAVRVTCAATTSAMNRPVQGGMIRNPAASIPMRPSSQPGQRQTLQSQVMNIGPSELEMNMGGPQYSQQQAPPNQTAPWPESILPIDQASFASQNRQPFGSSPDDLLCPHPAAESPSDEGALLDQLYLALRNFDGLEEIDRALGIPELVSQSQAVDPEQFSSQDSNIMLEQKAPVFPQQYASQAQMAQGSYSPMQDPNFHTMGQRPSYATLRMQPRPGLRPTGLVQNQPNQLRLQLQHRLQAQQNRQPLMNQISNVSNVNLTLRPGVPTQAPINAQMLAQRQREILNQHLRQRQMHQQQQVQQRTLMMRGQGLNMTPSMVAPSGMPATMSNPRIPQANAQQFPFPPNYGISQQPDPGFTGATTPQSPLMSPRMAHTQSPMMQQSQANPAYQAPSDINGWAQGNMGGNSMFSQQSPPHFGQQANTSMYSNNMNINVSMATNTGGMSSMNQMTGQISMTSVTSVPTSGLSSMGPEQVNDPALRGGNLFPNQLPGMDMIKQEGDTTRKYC
Chain of Lytic switch protein BZLF1 (P03206 whole entry): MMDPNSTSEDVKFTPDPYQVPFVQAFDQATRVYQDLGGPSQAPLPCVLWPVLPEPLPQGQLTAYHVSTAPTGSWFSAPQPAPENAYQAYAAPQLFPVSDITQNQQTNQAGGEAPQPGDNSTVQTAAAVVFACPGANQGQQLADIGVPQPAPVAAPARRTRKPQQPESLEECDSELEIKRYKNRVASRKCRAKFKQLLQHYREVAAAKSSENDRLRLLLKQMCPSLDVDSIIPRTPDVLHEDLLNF
Chain of Epstein-Barr nuclear antigen 1 (P03211 whole entry): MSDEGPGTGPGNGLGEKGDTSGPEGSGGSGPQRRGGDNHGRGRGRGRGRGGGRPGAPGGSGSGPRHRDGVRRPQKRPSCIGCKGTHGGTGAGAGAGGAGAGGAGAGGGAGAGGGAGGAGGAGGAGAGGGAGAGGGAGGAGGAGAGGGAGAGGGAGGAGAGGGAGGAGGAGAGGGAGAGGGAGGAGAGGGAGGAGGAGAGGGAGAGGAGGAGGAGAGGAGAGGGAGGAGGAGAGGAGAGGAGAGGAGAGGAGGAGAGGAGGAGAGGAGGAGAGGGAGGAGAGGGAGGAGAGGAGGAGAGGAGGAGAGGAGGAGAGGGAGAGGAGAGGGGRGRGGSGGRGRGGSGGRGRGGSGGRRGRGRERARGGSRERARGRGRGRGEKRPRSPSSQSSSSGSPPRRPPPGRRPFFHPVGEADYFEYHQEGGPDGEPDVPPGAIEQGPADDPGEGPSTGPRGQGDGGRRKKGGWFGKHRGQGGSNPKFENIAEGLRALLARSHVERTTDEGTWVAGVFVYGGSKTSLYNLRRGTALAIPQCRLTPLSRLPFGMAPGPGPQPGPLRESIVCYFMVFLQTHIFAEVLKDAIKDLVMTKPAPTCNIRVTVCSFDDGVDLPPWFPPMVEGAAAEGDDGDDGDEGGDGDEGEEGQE

IC50 [1]: > 111 µM (not active) | IC50 [2]: 37.8 µM (not active)
SMILES: COc1ccc(CNc2nc(NCc3ccc(OC)cc3)n(C(C)=O)n2)cc1

IC50 [3]: 6.88 µM (active) | IC50 [4]: 5.27 µM (active)
SMILES: Clc1ccc(CSc2cc3c(nn2)-c2ccccc2CC3)cc1Cl

EC50 (Estrogen receptor): 12.8 µM (not active)
SMILES: O=C(NCCCCCCNC(=O)c1ccc(Br)s1)c1ccc(Br)s1

EC50 (Bcl-2-like protein 10): 0.94 µM (active)
SMILES: Cc1ccc(C)n1-c1ccc(Cl)cc1C(=O)O

EC50 [5]: > 79.4 µM (not active) | EC50 [6]: > 79.4 µM (not active) | EC50 [7]: > 79.4 µM (not active)
SMILES: Brc1ccc(-c2csc(N/N=C/c3ccco3)n2)cc1

Source: ChEMBL document CHEMBL1201862, “PubChem BioAssay data set” (2004)
